This note sets out measurements from ChEMBL document CHEMBL5726207, “Substituted N,2-diarylquinoline-4-carboxamides and the use thereof as anti-inflammatory agents” (2019).

The target in the assay is Prostaglandin F2-alpha receptor (Homo sapiens, UniProt P43088). Put plainly: 470 nm/em. 525 nm in a fluorescence measuring instrument (FLIPR Tetra, MolecularDevices) for 120 seconds. It is filed as cell-based.

Values joined by “and” are separate entries in the source; they are usually repeats but may differ in a detail not shown here. Identical values can stand only once.

Chain of Prostaglandin F2-alpha receptor (P43088 whole entry): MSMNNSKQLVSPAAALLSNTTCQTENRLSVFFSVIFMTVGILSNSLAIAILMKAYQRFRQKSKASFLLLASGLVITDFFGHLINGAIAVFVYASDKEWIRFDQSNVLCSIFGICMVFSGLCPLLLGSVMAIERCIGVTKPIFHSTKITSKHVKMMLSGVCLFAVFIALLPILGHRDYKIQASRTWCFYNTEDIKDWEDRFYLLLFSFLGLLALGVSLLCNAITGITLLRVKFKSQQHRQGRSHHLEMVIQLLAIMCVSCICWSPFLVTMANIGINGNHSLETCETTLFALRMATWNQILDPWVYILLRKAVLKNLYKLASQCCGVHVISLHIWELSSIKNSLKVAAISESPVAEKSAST

With `Cc1c(-c2ccccc2)nc2ccc(Br)cc2c1C(=O)Nc1ccc(C(=O)O)cc1F`, the IC50 is 53 nM and 47 nM.

As a reminder, the IC50 is the concentration that inhibits the measured activity by half. A high value points to lower potency.
